# Data as given in patent publication US20070004763A1, “AMINOQUINOLINE AND AMINOQUINAZOLINE KINASE MODULATORS” (priority 2005, published 2007).
# pIC50: −log10 of the molar value.
# Target: T1, TrkB (Homo sapiens, UniProt Q16620)
# T1 construct: purchased Upstate 14-507M
# Test: Trk B Fluorescence Polarization Kinase Assay
# Assay type: biochemical
# Conditions: 150 uM ATP, 50 nM TrkB; uncertainty ±10%
# Description: The compounds of the present invention are also specific inhibitors of TrkB. Selection of preferred compounds of Formula I for use as TrkB inhibitors was performed in the following manner. The TrkB assay utilized the fluorescein-labeled phosphopeptide and the anti-phosphotyrosine antibody included in the Panvera Phospho-Tyrosine Kinase Kit (Green) supplied by Invitrogen. When TrkB phosphorylated poly Glu4Tyr, the fluorescein-labeled phosphopeptide was displaced from the anti-phosphotyrosine antibody by the phosphorylated poly Glu4Tyr, thus decreasing the FP value. The TrkB kinase reaction was incubated at room temperature for 30 minutes under the following conditions: 50 nM TrkB (Upstate, catalog #14-507M), 20 ug/mL poly Glu4Tyr, 150 uM ATP, 5 mM MgCl2, 1% compound in DMSO. The kinase reaction was stopped with the addition of EDTA. The fluorescein-labeled phosphopeptide and the anti-phosphotyrosine antibody were added and incubated for 30 minutes at room temperature. Data points were an average of triplicate samples. Inhibition and IC50 data analysis were done with GraphPad Prism using a non-linear regression fit with a multiparamater, sigmoidal dose-response (variable slope) equation.
# T1 sequence (Q16620 526-822 limits assumed): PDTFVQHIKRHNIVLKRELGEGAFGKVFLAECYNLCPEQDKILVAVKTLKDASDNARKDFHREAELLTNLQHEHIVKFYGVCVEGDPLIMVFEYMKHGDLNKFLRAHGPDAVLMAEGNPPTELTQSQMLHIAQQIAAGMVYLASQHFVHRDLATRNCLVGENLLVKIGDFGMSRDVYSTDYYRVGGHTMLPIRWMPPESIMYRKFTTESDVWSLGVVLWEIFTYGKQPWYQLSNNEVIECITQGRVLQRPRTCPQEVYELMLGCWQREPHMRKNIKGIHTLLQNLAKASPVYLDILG
row,Compound,pIC50
1,"CC(C)c1ccc(NC(=O)OC2CCN(c3ncnc4ccc(I)cc34)C2)cc1 (stereo not drawn) [Compound 20, (4-Isopropyl-phenyl)-carbamic acid 1-(6-iodo-quinazolin-4-yl)-pyrrolidin-3-yl ester]",4.88
2,"COc1cc2ncnc(N3CCC(NC(=O)Cc4ccc(C(C)C)cc4)CC3)c2cc1OC [Compound 21, N-[1-(6,7-Dimethoxy-quinazolin-4-yl)-piperidin-4-yl]-2-(4-isopropyl-phenyl)-acetamide]",4.95
3,"COc1cc2ncnc(N3CCC(COC(=O)Nc4ccc(C(C)C)cc4)CC3)c2cc1OC [Compound 22, (4-Isopropyl-phenyl)-carbamic acid 1-(6,7-dimethoxy-quinazolin-4-yl)-piperidin-4-ylmethyl ester]",6.10
4,"CC(C)c1ccc(NC(=O)OC2CCN(c3ncnc4ccccc34)C2)cc1 (stereo not drawn) [Compound 24, (4-Isopropyl-phenyl)-carbamic acid 1-quinazolin-4-yl-pyrrolidin-3-yl ester]",5.26
5,"CC(C)c1ccc(NC(=O)NC2CCN(c3ccnc4ccccc34)C2)cc1 (stereo not drawn) [Compound 27, (4-Isopropyl-phenyl)-3-(1-quinolin-4-yl)-pyrrolidin-3-yl-urea]",5.11
6,"COc1cc2ncnc(N3CCCC(OC(=O)Nc4ccc(C(C)C)cc4)C3)c2cc1OC (stereo not drawn) [Compound 31, (4-Isopropyl-phenyl)-carbamic acid 1-[1-(6,7-dimethoxy-quinazolin-4-yl)-piperidin-3-yl]ester]",6.70
7,"COc1cc2ncnc(N3CCCCC3COC(=O)Nc3ccc(C(C)C)cc3)c2cc1OC (stereo not drawn) [Compound 33, (4-Isopropyl-phenyl)-carbamic acid 1-(6,7-dimethoxy-quinazolin-4-yl)-piperidin-2-ylmethyl ester]",5.30
8,CC(C)c1ccc(NC(=O)OC2CCN(c3ccnc4ccccc34)C2)cc1 (stereo not drawn) [Compound 34],5.12
9,"COc1cc2ncnc(N3CCC(NC(=O)Cc4ccc(C(C)C)cc4)C3)c2cc1OC (stereo not drawn) [Compound 35, N-[1-(6,7-Dimethoxy-quinazolin-4-yl)-pyrrolidin-3-yl]-2-(4-isopropyl-phenyl)-acetamide]",5.19
10,"CC(C)Oc1ccc(NC(=O)NC2CCN(c3ccnc4ccccc34)C2)cc1 (stereo not drawn) [Compound 38, (4-Isopropoxy-phenyl)-3-(1-quinolin-4-yl)-pyrrolidin-3-yl-urea]",4.57
11,CC(C)Oc1ccc(NC(=O)OC2CCN(c3ccnc4ccccc34)C2)cc1 (stereo not drawn) [Compound 39],5.04
12,CC(C)Oc1ccc(NC(=O)OC2CCN(c3ccnc4ccccc34)CC2)cc1 [Compound 41],4.85
13,"COc1cc2ncnc(N3CCC(NC(=O)Nc4ccc(N5CCOCC5)cc4)C3)c2cc1OC (stereo not drawn) [Compound 43, 1-[1-(6,7-Dimethoxy-quinazolin-4-yl)-pyrrolidin-3-yl]-3-(4-morpholin-4-yl-phenyl)-urea]",4.39
14,"COc1cc2ncnc(N3CCC(NC(=O)Nc4ccc(OC5CCC5)nc4)C3)c2cc1OC (stereo not drawn) [Compound 44, 1-(6-Cyclobutoxy-pyridin-3-yl)-3-[1-(6,7-dimethoxy-quinazolin-4-yl)-pyrrolidin-3-yl]-urea]",5.31
15,"COc1cc2ncnc(N3CCC(NC(=O)Nc4ccc(OC5CCCC5)nc4)C3)c2cc1OC (stereo not drawn) [Compound 45, 1-(6-Cyclopentyloxy-pyridin-3-yl)-3-[1-(6,7-dimethoxy-quinazolin-4-yl)-pyrrolidin-3-yl]-urea]",4.93
16,"COc1cc2ncnc(N3CCC(NC(=O)Nc4ccc(N5CCCC5)nc4)C3)c2cc1OC (stereo not drawn) [Compound 46, 1-[1-(6,7-Dimethoxy-quinazolin-4-yl)-pyrrolidin-3-yl]-3-(6-pyrrolidin-1-yl-pyridin-3-yl)-urea]",4.61
17,"COc1cc2ncnc(N3CCC(NC(=O)Nc4ccc(N5CCCCC5)cc4)C3)c2cc1OC (stereo not drawn) [Compound 47, 1-[1-(6,7-Dimethoxy-quinazolin-4-yl)-pyrrolidin-3-yl]-3-(4-piperidin-1-yl-phenyl)-urea]",4.92
18,"COc1cc2ncnc(N3CCC(NC(=O)Nc4ccc(N5CCCC5)cc4)C3)c2cc1OC (stereo not drawn) [Compound 49, 1-[1-(6,7-Dimethoxy-quinazolin-4-yl)-pyrrolidin-3-yl]-3-(4-pyrrolidin-1-yl-phenyl)-urea]",5.41
19,"COc1cc2ncnc(N3CCC(NC(=O)Nc4ccc(C5CCCCC5)cc4)C3)c2cc1OC (stereo not drawn) [Compound 50, 1-(4-Cyclohexyl-phenyl)-3-[1-(6,7-dimethoxy-quinazolin-4-yl)-pyrrolidin-3-yl]-urea]",< 4.34
20,"COc1cc2ncnc(N3CCC(NC(=O)Nc4ccc(Oc5ccccc5)cc4)C3)c2cc1OC (stereo not drawn) [Compound 51, 1-[1-(6,7-Dimethoxy-quinazolin-4-yl)-pyrrolidin-3-yl]-3-(4-phenoxy-phenyl)-urea]",5.56

# Other lines, results leading:
row,pIC50,Compound
1,6.26,"COc1cc2ncnc(N3CCC(C(=O)Nc4ccc(OC(C)C)cc4)CC3)c2cc1OC [Compound 23, 1-(6,7-Dimethoxy-quinazolin-4-yl)-piperidine-4-carboxylic acid (4-isopropoxy-phenyl)-amide]"
2,4.96,"COc1cc2ncc(C#N)c(N3CCC(NC(=O)Nc4ccc(C(C)C)cc4)C3)c2cc1OC (stereo not drawn) [Compound 26, 1-[1-(3-Cyano-6,7-dimethoxy-quinolin-4-yl)-pyrrolidin-3-yl]-3-(4-isopropyl-phenyl)-urea]"
3,6.52,"COc1cc2ncnc(N3CCCC(NC(=O)Nc4ccc(C(C)C)cc4)C3)c2cc1OC (stereo not drawn) [Compound 28, 1-[1-(6,7-Dimethoxy-quinazolin-4-yl)-piperidin-3-yl]-3-(4-isopropyl-phenyl)-urea]"
4,4.99,"COc1cc2ncc(C#N)c(N3CCC(NC(=O)Nc4ccc(OC(C)C)cc4)C3)c2cc1OC (stereo not drawn) [Compound 29, 1-[1-(3-Cyano-6,7-dimethoxy-quinolin-4-yl)-pyrrolidin-3-yl]-3-(4-isopropoxy-phenyl)-urea]"
5,5.28,"COc1cc2ncc(C#N)c(N3CCC(OC(=O)Nc4ccc(OC(C)C)cc4)C3)c2cc1OC (stereo not drawn) [Compound 32, (4-Isopropoxy-phenyl)-carbamic acid 1-(3-cyano-6,7-dimethoxy-quinolin-4-yl)-pyrrolidin-3-yl ester]"
6,5.07,"COc1cc2ncc(C#N)c(N3CCC(OC(=O)Nc4ccc(C(C)C)cc4)C3)c2cc1OC (stereo not drawn) [Compound 37, (4-Isopropyl-phenyl)-carbamic acid 1-(3-cyano-6,7-dimethoxy-quinolin-4-yl)-pyrrolidin-3-yl ester]"
7,4.93,"COc1cc2ncc(C#N)c(N3CCC(OC(=O)Nc4ccc(OC(C)C)cc4)CC3)c2cc1OC [Compound 40, (4-Isopropoxy-phenyl)-carbamic acid 1-(3-cyano-6,7-dimethoxy-quinolin-4-yl)-piperidin-4-yl ester]"
8,< 4.38,"COc1cc2ncc(C#N)c(N3CCC(OC(=O)Nc4ccc(C(C)C)cc4)CC3)c2cc1OC [Compound 42, (4-Isopropyl-phenyl)-carbamic acid 1-(3-cyano-6,7-dimethoxy-quinolin-4-yl)-piperidin-4-yl ester]"
9,4.80,"COc1cc2ncnc(N3CCC(NC(=O)Nc4ccc(Cl)cc4)C3)c2cc1OC (stereo not drawn) [Compound 48, 1-(4-Chloro-phenyl)-3-[1-(6,7-dimethoxy-quinazolin-4-yl)-pyrrolidin-3-yl]-urea]"
10,4.64,"COc1cc2ncnc(N3CCC(NC(=O)Nc4ccc(N(C)C)cc4)C3)c2cc1OC (stereo not drawn) [Compound 52, 1-[1-(6,7-Dimethoxy-quinazolin-4-yl)-pyrrolidin-3-yl]-3-(4-dimethylamino-phenyl)-urea]"
